{
  "source": "ChEMBL document CHEMBL1129590",
  "about": "“Tyrphostins. 6. Dimeric benzylidenemalononitrile tyrophostins: potent inhibitors of EGF receptor tyrosine kinase in vitro” (J Med Chem, 1996)",
  "key": {"[1]": {"biological_target": "T1, Epidermal growth factor receptor (Homo sapiens, UniProt P00533)", "T1 sequence (P00533 whole entry)": "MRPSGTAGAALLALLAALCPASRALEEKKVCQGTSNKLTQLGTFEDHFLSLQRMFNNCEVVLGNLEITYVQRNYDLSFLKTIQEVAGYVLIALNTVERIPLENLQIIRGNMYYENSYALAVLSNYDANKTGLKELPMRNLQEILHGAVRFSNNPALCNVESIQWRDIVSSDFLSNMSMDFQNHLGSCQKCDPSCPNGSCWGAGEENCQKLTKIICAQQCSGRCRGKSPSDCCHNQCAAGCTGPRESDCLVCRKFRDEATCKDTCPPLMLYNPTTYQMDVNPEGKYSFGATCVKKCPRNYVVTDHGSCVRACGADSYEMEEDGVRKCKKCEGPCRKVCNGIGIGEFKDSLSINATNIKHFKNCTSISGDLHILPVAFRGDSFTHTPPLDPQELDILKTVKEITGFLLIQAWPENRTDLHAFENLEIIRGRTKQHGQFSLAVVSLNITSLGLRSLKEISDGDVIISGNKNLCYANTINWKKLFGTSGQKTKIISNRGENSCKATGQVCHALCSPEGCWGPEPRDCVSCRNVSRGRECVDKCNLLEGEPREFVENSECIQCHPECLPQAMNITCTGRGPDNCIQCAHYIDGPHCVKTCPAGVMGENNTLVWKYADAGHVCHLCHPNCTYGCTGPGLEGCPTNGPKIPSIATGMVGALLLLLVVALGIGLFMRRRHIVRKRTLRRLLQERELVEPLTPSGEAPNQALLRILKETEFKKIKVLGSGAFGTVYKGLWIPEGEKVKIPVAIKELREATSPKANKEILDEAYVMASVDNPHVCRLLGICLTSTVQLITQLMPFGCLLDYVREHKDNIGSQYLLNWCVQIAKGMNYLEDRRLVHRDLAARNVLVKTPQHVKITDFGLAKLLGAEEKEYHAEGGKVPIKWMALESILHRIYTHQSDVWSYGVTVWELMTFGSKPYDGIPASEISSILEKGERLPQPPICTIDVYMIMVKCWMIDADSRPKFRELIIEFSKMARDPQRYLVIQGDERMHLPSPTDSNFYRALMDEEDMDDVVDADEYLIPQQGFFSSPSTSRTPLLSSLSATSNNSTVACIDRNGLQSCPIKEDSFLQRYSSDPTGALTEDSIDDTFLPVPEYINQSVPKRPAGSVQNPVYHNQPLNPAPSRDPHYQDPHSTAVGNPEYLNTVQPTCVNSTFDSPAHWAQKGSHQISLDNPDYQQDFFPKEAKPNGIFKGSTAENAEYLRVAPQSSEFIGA", "assay": "Inhibitory activity of compound against Epidermal growth factor receptor autophosphorylation"}, "[2]": {"biological_target": "T1, Epidermal growth factor receptor", "assay": "Inhibition of epidermal growth factor receptor (EGFR) phosphorylation of the exogenous substrate poly(Glu6, Ala3,Tyr) (polyGAT)"}},
  "data": [
    {"smiles": "N#C/C(=C\\c1cc(O)c(O)c(Br)c1)S(=O)(=O)/C(C#N)=C/c1cc(O)c(O)c(Br)c1", "values": [
      {"measurement": "IC50", "setting": "[1]", "value": 1.4, "unit": "µM"},
      {"measurement": "IC50", "setting": "[2]", "value": 0.85, "unit": "µM"}
    ]},
    {"smiles": "N#C/C(=C\\c1ccc(O)c(O)c1)C(=O)NCCN1CCN(C(=O)/C(C#N)=C/c2ccc(O)c(O)c2)CC1", "values": [
      {"measurement": "IC50", "setting": "[1]", "value": 10, "unit": "µM"},
      {"measurement": "IC50", "setting": "[2]", "value": 2.2, "unit": "µM"}
    ]},
    {"smiles": "N#C/C(=C\\c1cc(O)c(O)c(O)c1)C(=O)NCCCCNC(=O)/C(C#N)=C/c1cc(O)c(O)c(O)c1", "values": [
      {"measurement": "IC50", "setting": "[1]", "value": 21, "unit": "µM"},
      {"measurement": "IC50", "setting": "[2]", "value": 0.6, "unit": "µM"}
    ]},
    {"smiles": "N#C/C(=C\\c1ccc(O)c(O)c1)C(=O)NCCNC(=O)/C(C#N)=C/c1ccc(O)c(O)c1", "values": [
      {"measurement": "IC50", "setting": "[1]", "value": 113, "unit": "µM"},
      {"measurement": "IC50", "setting": "[2]", "value": 0.5, "unit": "µM"}
    ]},
    {"smiles": "N#C/C(=C\\c1ccc(O)c(O)c1)C(=O)N1CCN(C(=O)/C(C#N)=C/c2ccc(O)c(O)c2)CC1", "values": [
      {"measurement": "IC50", "setting": "[1]", "value": 25, "unit": "µM"},
      {"measurement": "IC50", "setting": "[2]", "value": 4, "unit": "µM"}
    ]},
    {"smiles": "N#C/C(=C\\c1cc(O)c(O)c(Br)c1)C(=O)NCCCNC(=O)/C(C#N)=C/c1cc(O)c(O)c(Br)c1", "values": [
      {"measurement": "IC50", "setting": "[1]", "value": 3.9, "unit": "µM"},
      {"measurement": "IC50", "setting": "[2]", "value": 0.34, "unit": "µM"}
    ]},
    {"smiles": "N#C/C(=C\\c1ccc(O)c(O)c1)C(=O)NCCCCCCNC(=O)/C(C#N)=C/c1ccc(O)c(O)c1", "values": [
      {"measurement": "IC50", "setting": "[1]", "value": 11, "unit": "µM"},
      {"measurement": "IC50", "setting": "[2]", "value": 0.7, "unit": "µM"}
    ]},
    {"smiles": "N#C/C(=C\\c1ccc(O)c(O)c1)C(=O)NCCCCCNC(=O)/C(C#N)=C/c1ccc(O)c(O)c1", "values": [
      {"measurement": "IC50", "setting": "[1]", "value": 20, "unit": "µM"},
      {"measurement": "IC50", "setting": "[2]", "value": 0.7, "unit": "µM"}
    ]},
    {"smiles": "N#C/C(=C\\c1ccc(O)c(O)c1)C(=O)NC1CCCC[C@@H]1NC(=O)/C(C#N)=C/c1ccc(O)c(O)c1", "note": "(some centres not stated)", "values": [
      {"measurement": "IC50", "setting": "[1]", "value": 13.5, "unit": "µM"},
      {"measurement": "IC50", "setting": "[2]", "value": 2.1, "unit": "µM"}
    ]},
    {"smiles": "N#C/C(=C\\c1ccc(O)c(O)c1)C(=O)NCCCN1CCN(CCCNC(=O)/C(C#N)=C/c2ccc(O)c(O)c2)CC1", "values": [
      {"measurement": "IC50", "setting": "[1]", "value": "> 167", "unit": "µM"}
    ]},
    {"smiles": "N#C/C(=C\\c1ccc(O)c(O)c1)C(=O)NCC1CCCC(CNC(=O)/C(C#N)=C/c2ccc(O)c(O)c2)C1", "note": "(configuration not stated)", "values": [
      {"measurement": "IC50", "setting": "[1]", "value": "> 100", "unit": "µM"},
      {"measurement": "IC50", "setting": "[2]", "value": 1.8, "unit": "µM"}
    ]},
    {"smiles": "COc1cc(/C=C(\\C#N)C(=O)NCCCCNC(=O)/C(C#N)=C/c2cc(OC)c(O)c([N+](=O)[O-])c2)cc([N+](=O)[O-])c1O", "values": [
      {"measurement": "IC50", "setting": "[1]", "value": 19, "unit": "µM"},
      {"measurement": "IC50", "setting": "[2]", "value": 112, "unit": "µM"}
    ]},
    {"smiles": "N#C/C(=C\\c1cc(O)c(O)c([N+](=O)[O-])c1)C(=O)NCCCNC(=O)/C(C#N)=C/c1cc(O)c(O)c([N+](=O)[O-])c1", "values": [
      {"measurement": "IC50", "setting": "[1]", "value": "> 100", "unit": "µM"}
    ]},
    {"smiles": "N#C/C(=C\\c1ccc(O)c(O)c1)S(=O)(=O)/C(C#N)=C/c1ccc(O)c(O)c1", "values": [
      {"measurement": "IC50", "setting": "[1]", "value": 12, "unit": "µM"},
      {"measurement": "IC50", "setting": "[2]", "value": 0.38, "unit": "µM"}
    ]},
    {"smiles": "N#C/C(=C\\c1ccc(O)c(O)c1)C(=O)NCCCCCCCCCCNC(=O)/C(C#N)=C/c1ccc(O)c(O)c1", "values": [
      {"measurement": "IC50", "setting": "[1]", "value": "> 100", "unit": "µM"},
      {"measurement": "IC50", "setting": "[2]", "value": 1.3, "unit": "µM"}
    ]},
    {"smiles": "N#C/C(=C\\c1ccc2[nH]ccc2c1)C(=O)NCCCNC(=O)/C(C#N)=C/c1ccc2[nH]ccc2c1", "values": [
      {"measurement": "IC50", "setting": "[1]", "value": "> 100", "unit": "µM"},
      {"measurement": "IC50", "setting": "[2]", "value": "> 100", "unit": "µM"}
    ]},
    {"smiles": "N#C/C(=C\\c1ccc(O)c(O)c1)C(=O)NC1CCC(CC2CCC(NC(=O)/C(C#N)=C/c3ccc(O)c(O)c3)CC2)CC1", "note": "(configuration not stated)", "values": [
      {"measurement": "IC50", "setting": "[1]", "value": "> 83", "unit": "µM"}
    ]},
    {"smiles": "COc1cc(/C=C(\\C#N)C(=O)NCCCCNC(=O)/C(C#N)=C/c2cc(Br)c(O)c(OC)c2)cc(Br)c1O", "values": [
      {"measurement": "IC50", "setting": "[1]", "value": 102, "unit": "µM"}
    ]},
    {"smiles": "N#C/C(=C\\c1ccc(O)c(O)c1)C(=O)NCN1CCN(C(=O)/C(C#N)=C/c2ccc(O)c(O)c2)CC1", "values": [
      {"measurement": "IC50", "setting": "[1]", "value": "> 83", "unit": "µM"}
    ]},
    {"smiles": "N#C/C(=C\\c1ccc(O)c(O)c1)C(=O)NCc1cccc(CNC(=O)/C(C#N)=C/c2ccc(O)c(O)c2)c1", "values": [
      {"measurement": "IC50", "setting": "[1]", "value": 10.3, "unit": "µM"},
      {"measurement": "IC50", "setting": "[2]", "value": 1.6, "unit": "µM"}
    ]},
    {"smiles": "N#C/C(=C\\c1ccc(O)c(O)c1)C(=O)NCCCCNC(=O)/C(C#N)=C/c1ccc(O)c(O)c1", "values": [
      {"measurement": "IC50", "setting": "[1]", "value": 4.3, "unit": "µM"},
      {"measurement": "IC50", "setting": "[2]", "value": 0.6, "unit": "µM"}
    ]}
  ]
}
